Reference: patent US9539280B2, “Cartilage production promoter and prophylactic or therapeutic agent for diseases associated with cartilage damage” (NATIONAL UNIVERSITY CORPORATION TOTTORI UNIVERSITY, priority 2009, dated 2017)
Entries after “also recorded” stand apart in the source; their conditions may differ.

How the values were obtained:
Format in all cases: in vivo, rabbit
proteoglycan = assay: Histological observation, staining with safranin-O and image analysis
Method: (§1) As animal specimens, groups of female white rabbits (weight: about 2.0 kg) were used, the number of the rabbits in each of the groups being 3. The rabbits were habituated to the environment for one week from the time of delivery. Thereafter, 0.1 mg/kg of medetomidine was subcutaneously injected into each of the rabbits, and 25 mg/kg of Ketalar was intramuscularly injected thereto. About each of the rabbit specimens subjected to the injection anesthesia, the left knee joint was shaved, and then disinfected. Thereafter, approaching from the outside of the knee joint, the articular capsule was opened and the knee joint was exposed completely by shifting the patella to the inside. With reference to the experiment of Tamai et al. (Carbohydrate Polymers, 2002, vol. 48, pp. 369-378), three holes of 2 mm in diameter and 4 mm in depth were bored with a hand-drill at the proximal trochlear groove, distal trochlear groove, and the medial trochlear ridge. Thereafter, the sites were sufficiently rinsed, and then the articular capsule was sutured with 3-0PDS (polydioxanone). […]
(§2) The left femur of each of the damaged models in Example 1 was recovered, and then fixed with a 10% neutral buffered formalin aqueous solution (formaldehyde solution). […] The number of pixels in which a target color tone occupied was measured. […]

glycosaminoglycan = assay: Histological observation, staining with alcian blue and image analysis
Method: as §1, §2

[1] = Observation of side effects during fucoidan administration; details: 1 g fucoidan in 50 mL water every day by natural intake, 3 weeks, female white rabbits
Method: From the day of the operation, initially every day, water (50 mL) in which 1 g of a fucoidan was dissolved were dosed to the rabbits in the fucoidan-administered group by natural intake. Thereafter, water was given to the rabbits to drink freely. This was continued for 3 weeks. Only water was given to the rabbits in the control group.

[2] = system: damaged models (holes bored at proximal trochlear groove, distal trochlear groove and medial trochlear ridge of left knee joint); assay: Macroscopic observation of the degree of healing in cartilage damaged models; details: after 3 weeks
Method: As animal specimens, groups of female white rabbits (weight: about 2.0 kg) were used, the number of the rabbits in each of the groups being 3. The rabbits were habituated to the environment for one week from the time of delivery. Thereafter, 0.1 mg/kg of medetomidine was subcutaneously injected into each of the rabbits, and 25 mg/kg of Ketalar was intramuscularly injected thereto. About each of the rabbit specimens subjected to the injection anesthesia, the left knee joint was shaved, and then disinfected. Thereafter, approaching from the outside of the knee joint, the articular capsule was opened and the knee joint was exposed completely by shifting the patella to the inside. With reference to the experiment of Tamai et al. (Carbohydrate Polymers, 2002, vol. 48, pp. 369-378), three holes of 2 mm in diameter and 4 mm in depth were bored with a hand-drill at the proximal trochlear groove, distal trochlear groove, and the medial trochlear ridge. Thereafter, the sites were sufficiently rinsed, and then the articular capsule was sutured with 3-0PDS (polydioxanone). The subcutaneous tissue and the skin were simultaneously sutured with stainless steel wires. […] The degree of healing of each of the damages was scored on the basis of Table 1, and evaluated. […] About each of the damaged model groups, the degree of healing was evaluated on the basis of the criterion in Example 2. […]

[3] = Example 3, FIG. 6, vs control group, t-test

With fucoidan the “image analysis of safranin-O-stained images (proteoglycan)” value (proteoglycan; [3]) was “significantly higher value”, the “safranin-O staining of repaired regions (proteoglycan content)” value (proteoglycan; Example 3, FIGS. 4 and 5, proximal and distal trochlear groove, microscope) was “a large amount of proteoglycan was contained” and the “image analysis of alcian blue-stained images (glycosaminoglycan)” value (glycosaminoglycan; [3]) was “significantly higher value”. For the same substance, the “alcian blue staining of repaired regions (glycosaminoglycan content)” value (glycosaminoglycan; Example 3, FIGS. 2 and 3, proximal and distal trochlear groove, microscope) was “a large amount of glycosaminoglycan was contained”, the “signs of side effects” value [1] was “no signs of side effects” and the “degree of healing (macroscopic observation)” value ([2]; Example 2, FIG. 1, vs control group) was “many of the damages were satisfactorily cured; also recorded: good therapeutic results”. The “tissue in the damaged sites” value ([2]; Example 2, control filled with collagen fibers, fibroblasts) was “substituted with chondroblasts and cartilage tissues”.
